pEC50 data for 34 targets are collected here from the supplement of paper PMC6411743.

A word on the pEC50: it is −log10 of the EC50, conventionally taken in molar units.
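Further: lysate dosed with Na-ATP at 0 0.005 0.05 0.5 and 2 mM.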

UniProt O60264, sequence (O60264 whole entry): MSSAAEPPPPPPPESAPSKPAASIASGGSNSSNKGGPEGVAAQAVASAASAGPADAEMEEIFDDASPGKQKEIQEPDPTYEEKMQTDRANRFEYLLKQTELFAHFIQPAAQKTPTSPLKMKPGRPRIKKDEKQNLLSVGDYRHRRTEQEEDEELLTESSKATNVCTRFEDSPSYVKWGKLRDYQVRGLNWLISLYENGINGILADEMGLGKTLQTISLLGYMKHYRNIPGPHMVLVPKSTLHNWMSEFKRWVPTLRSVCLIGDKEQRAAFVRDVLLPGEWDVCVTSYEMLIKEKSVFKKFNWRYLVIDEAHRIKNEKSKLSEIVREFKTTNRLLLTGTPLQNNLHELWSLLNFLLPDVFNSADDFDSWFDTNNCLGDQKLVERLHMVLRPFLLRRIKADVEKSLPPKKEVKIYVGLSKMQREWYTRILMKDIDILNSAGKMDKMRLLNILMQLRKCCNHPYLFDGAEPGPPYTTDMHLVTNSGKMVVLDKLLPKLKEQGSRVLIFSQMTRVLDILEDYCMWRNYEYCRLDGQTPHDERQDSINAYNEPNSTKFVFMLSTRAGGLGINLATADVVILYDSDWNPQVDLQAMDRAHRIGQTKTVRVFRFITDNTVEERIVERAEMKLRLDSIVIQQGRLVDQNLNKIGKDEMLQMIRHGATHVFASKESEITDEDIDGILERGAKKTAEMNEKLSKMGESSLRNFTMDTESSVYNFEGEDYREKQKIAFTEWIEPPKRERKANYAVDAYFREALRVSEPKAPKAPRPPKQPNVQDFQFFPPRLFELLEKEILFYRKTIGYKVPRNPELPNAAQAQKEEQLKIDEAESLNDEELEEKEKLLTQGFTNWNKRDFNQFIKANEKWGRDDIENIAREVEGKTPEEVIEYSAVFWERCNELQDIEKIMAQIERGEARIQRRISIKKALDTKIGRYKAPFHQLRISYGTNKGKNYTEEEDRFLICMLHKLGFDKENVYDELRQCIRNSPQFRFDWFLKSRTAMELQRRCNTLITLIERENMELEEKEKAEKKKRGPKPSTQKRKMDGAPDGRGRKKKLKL
UniProt Q6P1M0, sequence (Q6P1M0 whole entry, looked up): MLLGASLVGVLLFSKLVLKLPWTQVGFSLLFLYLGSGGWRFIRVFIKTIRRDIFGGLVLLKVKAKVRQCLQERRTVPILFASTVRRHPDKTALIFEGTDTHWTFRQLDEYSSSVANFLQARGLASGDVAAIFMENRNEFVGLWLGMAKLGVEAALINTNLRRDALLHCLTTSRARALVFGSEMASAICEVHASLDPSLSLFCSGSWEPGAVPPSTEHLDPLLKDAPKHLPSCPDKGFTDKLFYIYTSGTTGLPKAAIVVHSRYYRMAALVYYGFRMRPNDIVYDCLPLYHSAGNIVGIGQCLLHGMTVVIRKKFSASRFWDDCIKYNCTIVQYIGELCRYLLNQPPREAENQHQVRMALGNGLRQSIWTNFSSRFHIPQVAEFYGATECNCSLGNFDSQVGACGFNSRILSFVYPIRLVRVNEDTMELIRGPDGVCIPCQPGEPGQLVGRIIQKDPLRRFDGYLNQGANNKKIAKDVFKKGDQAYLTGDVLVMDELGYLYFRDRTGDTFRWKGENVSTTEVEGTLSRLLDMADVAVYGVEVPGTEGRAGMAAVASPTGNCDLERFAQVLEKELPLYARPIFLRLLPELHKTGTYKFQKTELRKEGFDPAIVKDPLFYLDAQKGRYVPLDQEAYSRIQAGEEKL
UniProt Q14493, sequence (Q14493 whole entry, looked up): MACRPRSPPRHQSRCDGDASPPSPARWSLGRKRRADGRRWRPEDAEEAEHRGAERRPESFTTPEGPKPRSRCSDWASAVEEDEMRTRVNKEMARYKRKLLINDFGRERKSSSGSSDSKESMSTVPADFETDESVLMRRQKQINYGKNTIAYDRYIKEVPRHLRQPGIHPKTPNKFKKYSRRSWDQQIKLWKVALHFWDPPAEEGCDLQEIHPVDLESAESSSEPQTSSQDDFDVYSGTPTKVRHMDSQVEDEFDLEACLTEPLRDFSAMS
UniProt Q12874, sequence (Q12874 whole entry): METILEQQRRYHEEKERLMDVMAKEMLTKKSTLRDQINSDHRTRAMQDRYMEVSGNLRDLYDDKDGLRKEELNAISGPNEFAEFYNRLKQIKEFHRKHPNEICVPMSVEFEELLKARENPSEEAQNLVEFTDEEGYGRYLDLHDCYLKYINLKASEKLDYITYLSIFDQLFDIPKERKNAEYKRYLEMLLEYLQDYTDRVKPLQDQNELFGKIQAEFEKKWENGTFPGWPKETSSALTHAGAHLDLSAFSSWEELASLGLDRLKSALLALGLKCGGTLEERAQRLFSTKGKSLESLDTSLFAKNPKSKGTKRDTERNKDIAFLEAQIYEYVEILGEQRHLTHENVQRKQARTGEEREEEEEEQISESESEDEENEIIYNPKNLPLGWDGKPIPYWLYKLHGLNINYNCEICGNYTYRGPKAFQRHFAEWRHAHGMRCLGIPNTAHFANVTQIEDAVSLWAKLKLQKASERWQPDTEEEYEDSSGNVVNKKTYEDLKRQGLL
UniProt Q9UBE0, sequence (Q9UBE0 whole entry): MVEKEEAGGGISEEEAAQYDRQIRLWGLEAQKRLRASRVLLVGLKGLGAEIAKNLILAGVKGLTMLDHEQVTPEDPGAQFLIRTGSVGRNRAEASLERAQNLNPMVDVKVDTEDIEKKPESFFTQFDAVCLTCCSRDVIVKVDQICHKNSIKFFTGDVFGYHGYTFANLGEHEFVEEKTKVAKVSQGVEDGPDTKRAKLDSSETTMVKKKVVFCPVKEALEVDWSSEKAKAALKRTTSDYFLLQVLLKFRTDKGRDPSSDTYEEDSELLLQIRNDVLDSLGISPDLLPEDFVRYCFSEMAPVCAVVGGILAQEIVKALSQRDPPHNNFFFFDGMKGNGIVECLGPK
UniProt Q9H4L7, sequence (Q9H4L7 whole entry): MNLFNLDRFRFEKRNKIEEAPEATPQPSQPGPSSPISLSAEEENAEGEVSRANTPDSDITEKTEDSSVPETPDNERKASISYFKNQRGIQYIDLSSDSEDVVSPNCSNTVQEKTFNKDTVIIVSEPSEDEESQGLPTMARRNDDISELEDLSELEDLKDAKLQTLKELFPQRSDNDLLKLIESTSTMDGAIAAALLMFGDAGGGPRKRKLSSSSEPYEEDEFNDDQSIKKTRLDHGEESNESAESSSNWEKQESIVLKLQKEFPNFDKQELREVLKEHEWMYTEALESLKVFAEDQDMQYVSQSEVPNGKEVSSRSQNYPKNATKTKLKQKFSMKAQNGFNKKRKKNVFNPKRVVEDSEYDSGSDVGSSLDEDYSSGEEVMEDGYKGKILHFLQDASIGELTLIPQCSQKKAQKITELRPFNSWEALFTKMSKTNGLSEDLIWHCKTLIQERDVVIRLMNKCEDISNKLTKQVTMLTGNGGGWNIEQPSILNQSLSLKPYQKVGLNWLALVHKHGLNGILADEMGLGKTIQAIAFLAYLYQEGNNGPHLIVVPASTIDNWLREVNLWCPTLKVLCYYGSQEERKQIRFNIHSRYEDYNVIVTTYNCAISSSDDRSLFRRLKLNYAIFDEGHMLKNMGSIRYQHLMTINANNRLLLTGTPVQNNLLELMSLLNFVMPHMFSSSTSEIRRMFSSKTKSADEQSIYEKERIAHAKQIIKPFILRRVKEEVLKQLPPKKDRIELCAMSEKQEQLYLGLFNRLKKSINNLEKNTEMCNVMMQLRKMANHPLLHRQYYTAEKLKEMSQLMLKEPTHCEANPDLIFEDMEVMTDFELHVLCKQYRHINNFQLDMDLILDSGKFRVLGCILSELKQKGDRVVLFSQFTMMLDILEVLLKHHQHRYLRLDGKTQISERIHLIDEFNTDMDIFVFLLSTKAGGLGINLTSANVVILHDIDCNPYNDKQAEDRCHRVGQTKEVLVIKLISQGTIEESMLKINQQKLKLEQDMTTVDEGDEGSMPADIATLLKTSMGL
UniProt Q15393, sequence (Q15393 whole entry): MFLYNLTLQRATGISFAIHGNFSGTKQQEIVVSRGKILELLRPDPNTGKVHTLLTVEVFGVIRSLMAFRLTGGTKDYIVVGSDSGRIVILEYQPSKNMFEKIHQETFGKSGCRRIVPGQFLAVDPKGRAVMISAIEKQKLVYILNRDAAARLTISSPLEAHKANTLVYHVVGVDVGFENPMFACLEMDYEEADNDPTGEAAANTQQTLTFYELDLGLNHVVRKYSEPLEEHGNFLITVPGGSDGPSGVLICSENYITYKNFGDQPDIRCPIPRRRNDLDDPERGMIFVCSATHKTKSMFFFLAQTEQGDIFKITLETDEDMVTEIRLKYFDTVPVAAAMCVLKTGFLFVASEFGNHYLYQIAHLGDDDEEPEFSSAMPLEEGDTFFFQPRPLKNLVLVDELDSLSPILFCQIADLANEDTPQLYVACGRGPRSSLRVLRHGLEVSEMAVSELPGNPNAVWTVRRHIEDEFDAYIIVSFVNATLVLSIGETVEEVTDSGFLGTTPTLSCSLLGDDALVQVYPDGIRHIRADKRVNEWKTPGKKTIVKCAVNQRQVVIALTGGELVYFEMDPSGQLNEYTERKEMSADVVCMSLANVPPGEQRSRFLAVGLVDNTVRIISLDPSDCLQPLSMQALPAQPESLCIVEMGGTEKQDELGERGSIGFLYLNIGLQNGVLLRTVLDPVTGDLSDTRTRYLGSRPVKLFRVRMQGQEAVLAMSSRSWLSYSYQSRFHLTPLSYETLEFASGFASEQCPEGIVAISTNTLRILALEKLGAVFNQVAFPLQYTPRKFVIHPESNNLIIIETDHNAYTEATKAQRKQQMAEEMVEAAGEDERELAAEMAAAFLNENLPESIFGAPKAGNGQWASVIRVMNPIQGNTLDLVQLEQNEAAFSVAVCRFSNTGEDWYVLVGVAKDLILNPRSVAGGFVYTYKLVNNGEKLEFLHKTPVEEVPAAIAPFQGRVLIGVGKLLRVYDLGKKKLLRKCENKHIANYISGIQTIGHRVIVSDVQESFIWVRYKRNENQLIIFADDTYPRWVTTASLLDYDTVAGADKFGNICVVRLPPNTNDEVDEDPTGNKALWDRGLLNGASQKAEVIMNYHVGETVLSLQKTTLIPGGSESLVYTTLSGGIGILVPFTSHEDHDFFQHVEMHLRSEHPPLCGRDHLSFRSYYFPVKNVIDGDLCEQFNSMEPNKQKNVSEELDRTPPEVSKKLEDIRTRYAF

Compound in this experiment: Nc1ncnc2c1ncn2[C@@H]1O[C@H](COP(=O)(O)OP(=O)(O)OP(=O)(O)O)[C@@H](O)[C@H]1O [adenosine triphosphate]
The experiment is described as follows: pEC50 of ATP-induced change in protein thermal stability (2D-TPP). In outline: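 pEC50 was obtained by fitting dose-response curves for each replicate over pairs of adjacent temperatures, and hits were assigned using permutation-based false discovery rate control. The input came from Jurkat crude lysate treated with five concentrations including vehicle (10 min, room temperature), heated at 12 temperatures from 42 to 63.9 °C for 3 min, then given NP40 and benzonase (60 min, 4 °C). After ultracentrifugation, soluble protein was quantified by TMT LC-MS/MS as median-normalised fold changes versus vehicle per temperature, across three independent experiments.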
Consider “RPL18 (effect direction: destabilized) (UniProt Q07020)”, for which the pEC50 is less than 2.7.
The same measure for “RPL27A (effect direction: destabilized) (UniProt P46776)”: 3.2; for “RPL28 (effect direction: destabilized) (UniProt P46779)”: 4.17; for “RPL34 (effect direction: destabilized) (UniProt P49207)”: 4.92.
The same measure for “RPN1 (effect direction: stabilized) (UniProt P04843)”: less than 2.7; for “RPS2 (effect direction: destabilized) (UniProt P15880)”: 3.82.
Turning to “RPS3 (effect direction: destabilized) (UniProt P23396)”, the pEC50 was less than 2.7.
For the target “RPS3A (effect direction: destabilized) (UniProt P61247)”, the negative-log EC50 (pEC50) came to 3.86.
For the target “RPS10 (effect direction: destabilized) (UniProt P46783)”, the pEC50 was less than 2.7.
Consider “RPSA (effect direction: stabilized) (UniProt P08865)”, for which the negative-log EC50 (pEC50) is less than 2.7.
For “RRP9 (effect direction: destabilized) (UniProt O43818)”, the pEC50 amounted to 2.98.
As to “RRP15 (effect direction: destabilized) (UniProt Q9Y3B9)”, the pEC50 stood at 3.51.
“RSBN1L (effect direction: stabilized) (UniProt Q6PCB5)”: the negative logarithm of the EC50 (pEC50) is 3.21.
The same measure for “SACM1L (effect direction: stabilized) (UniProt Q9NTJ5)”: 3.14; for “SAE1 (effect direction: stabilized) (UniProt Q9UBE0)”: less than 2.7.
For “SARNP (effect direction: destabilized) (UniProt P82979)”, the pEC50 amounted to 3.18.
For “SARS2 (effect direction: stabilized) (UniProt Q9NP81)”, the negative logarithm of the EC50 (pEC50) worked out at 3.43.
Turning to “SCCPDH (effect direction: stabilized) (UniProt Q8NBX0)”, the pEC50 was found to be 3.12.
On to “SCPEP1 (effect direction: stabilized) (UniProt Q9HB40)”, for which the pEC50 stood at 3.37.
“SDAD1 (effect direction: destabilized) (UniProt Q9NVU7)”: the pEC50 is less than 2.7.
On to “SF3A1 (effect direction: stabilized) (UniProt Q15459)”, for which the pEC50 is 2.79.
To “SF3A3 (effect direction: stabilized) (UniProt Q12874)” belongs less than 2.7; to “SF3B3 (effect direction: stabilized) (UniProt Q15393)”, less than 2.7.
“SFXN1 (effect direction: stabilized) (UniProt Q9H9B4)”: the pEC50 turned out to be 2.77.
On to “SH2D1A (effect direction: stabilized) (UniProt O60880)”, for which the pEC50 was less than 2.7.
For the target “SHKBP1 (effect direction: stabilized) (UniProt Q8TBC3)”, the pEC50 stood at 2.83.
For the target “SHPK (effect direction: stabilized) (UniProt Q9UHJ6)”, the negative-log EC50 (pEC50) amounted to 2.83.
For the target “SKIV2L (effect direction: stabilized) (UniProt Q15477)”, the pEC50 was 2.92.
The same measure for “SLBP (effect direction: stabilized) (UniProt Q14493)”: 3.47.
For “SLC12A2 (effect direction: stabilized) (UniProt P55011)”, the pEC50 turned out to be 3.44.
In the case of “SLC12A9 (effect direction: stabilized) (UniProt Q9BXP2)”, the negative logarithm of the EC50 (pEC50) came to 3.94.
For the target “SLC27A4 (effect direction: stabilized) (UniProt Q6P1M0)”, the negative logarithm of the EC50 (pEC50) came to 3.05.
For the target “SMARCA5 (effect direction: stabilized) (UniProt O60264)”, the pEC50 was 4.03.
The same measure for “SMARCAD1 (effect direction: stabilized) (UniProt Q9H4L7)”: 3.94.
